Laboratory results reported in patent US20250228239A1, “MOLECULES HAVING PESTICIDAL UTILITY, AND INTERMEDIATES, COMPOSITIONS, AND PROCESSES, RELATED THERETO” (priority 2024, published 2025).

How the values were obtained:
Assay type in all cases: in vivo
[1] = test system: Yellow Fever Mosquito (Aedes aegypti, AEDSAE); conditions: Table ABC: Biological Results; species YFM
Procedure: Certain molecules disclosed in this document were tested against YFM using procedures described in the following paragraph. In the reporting of the results, the “GPA & YFM Rating Table” was used (See Table Section).
Master plates containing 400 μg of a molecule dissolved in 100 μL of dimethyl sulfoxide (DMSO) (equivalent to a 4000 ppm solution) are used. A master plate of assembled molecules contains 15 μL per well. To this plate, 135 μL of a 90:10 water/acetone mixture is added to each well. A robot (Biomek® NXP Laboratory Automation Workstation) is programmed to dispense 15 μL aspirations from the master plate into an empty 96-well shallow plate (“daughter” plate). There are 6 reps (“daughter” plates) created per master. The created “daughter” plates are then immediately infested with YFM larvae.
The day before plates are to be treated, mosquito eggs are placed in Millipore water containing liver powder to begin hatching (4 g into 400 mL). After the “daughter” plates are created using the robot, they are infested with 220 μL of the liver powder/larval mosquito mixture (about 1 day-old larvae). After plates are infested with mosquito larvae, a non-evaporative lid is used to cover the plate to reduce drying. Plates are held at room temperature for 3 days prior to grading. After 3 days, each well is observed and scored based on mortality. The results are indicated in the table entitled “Table ABC: Biological Results” (See Table Section).

[2] = test system: Beet Armyworm (Spodoptera exigua, LAPHEG); assay: Bioassays on Beet Armyworm (BAW), 128-well diet tray assay; conditions: Spodoptera exigua; Table ABC: Biological Results; species BAW; read-out: BAW
How it was run: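 Eight diet wells per compound were treated at 50 μg/cm^2 (acetone-water 90:10), dried, then infested with 1–5 second-instar larvae each. After five to seven days at 25 °C under 14:10 photoperiod, mortality was scored and averaged across wells.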

[3] = test system: Cabbage Looper (Trichoplusia ni, TRIPNI); assay: Bioassays on Cabbage Looper (CL), 128-well diet tray assay; conditions: Trichoplusia ni; Table ABC: Biological Results; species CL; read-out: CL
How it was run: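 Activity is mean percent mortality over eight wells of second-instar larvae exposed to diet treated at 50 μg/cm^2 for 5–7 days at 25° C.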

## Nc1c(F)ccc(NC(=O)c2cc(NC(=O)[C@H]3[C@H](c4cc(F)c(Cl)c(Cl)c4)C3(Cl)Cl)ccc2Cl)c1F (relative stereo) [F1046, trans-N-(3-Amino-2,4-difluorophenyl)-2-chloro-5-(2,2-dichloro-3-(3,4-dichloro-5-fluorophenyl)cyclopropane-1-carboxamido)benzamide]
[1]
  YFM: A (80–100)
[2]
  pest or weed control at 50 µg/cm2: 50 to 100%
[3]
  pest or weed control at 50 µg/cm2: 50 to 100%

## Nc1c(F)ccc(NC(=O)c2cc(NC(=O)[C@H]3[C@@H](c4cc(F)c(Cl)c(Cl)c4)C3(Cl)Cl)ccc2Cl)c1F (relative stereo) [F1047, cis-N-(3-Amino-2,4-difluorophenyl)-2-chloro-5-(2,2-dichloro-3-(3,4-dichloro-5-fluorophenyl)cyclopropane-1-carboxamido)benzamide]
[1]
  YFM: A (80–100)
[2]
  pest or weed control at 50 µg/cm2: 50 to 100%
[3]
  pest or weed control at 50 µg/cm2: 50 to 100%

## Nc1c(F)ccc(NC(=O)c2cc(NC(=O)[C@H]3[C@H](c4ccc(F)c(Cl)c4F)C3(Cl)Cl)ccc2Cl)c1F (relative stereo) [F1049, trans-N-(3-Amino-2,4-difluorophenyl)-2-chloro-5-(2,2-dichloro-3-(3-chloro-2,4-difluorophenyl)cyclopropane-1-carboxamido)benzamide]
[1]
  YFM: A (80–100)
[2]
  pest or weed control at 50 µg/cm2: 50 to 100%
[3]
  pest or weed control at 50 µg/cm2: 50 to 100%

## O=C(Nc1ccc(F)cc1F)c1cc(NC(=O)[C@H]2[C@H](c3cc(C(F)(F)F)cc(Cl)c3F)C2(Cl)Cl)ccc1Cl (relative stereo) [F1050, trans-2-Chloro-5-(2,2-dichloro-3-(3-chloro-2-fluoro-5-(trifluoromethyl)phenyl)cyclopropane-1-carboxamido)-N-(2,4-difluorophenyl)benzamide]
[1]
  YFM: A (80–100)
[2]
  pest or weed control at 50 µg/cm2: 50 to 100%
[3]
  pest or weed control at 50 µg/cm2: 50 to 100%

## O=C(Nc1ccc(F)cc1F)c1cc(NC(=O)[C@H]2[C@@H](c3cc(C(F)(F)F)cc(Cl)c3F)C2(Cl)Cl)ccc1Cl (relative stereo) [F1051, cis-2-Chloro-5-(2,2-dichloro-3-(3-chloro-2-fluoro-5-(trifluoromethyl)phenyl)cyclopropane-1-carboxamido)-N-(2,4-difluorophenyl)benzamide]
[1]
  YFM: A (80–100)
[2]
  pest or weed control at 50 µg/cm2: 50 to 100%
[3]
  pest or weed control at 50 µg/cm2: 50 to 100%

## Cc1cc(Br)ccc1NC(=O)c1cc(NC(=O)[C@H]2[C@H](c3cc(Cl)cc(Cl)c3)C2(Cl)Cl)ccc1Cl (relative stereo) [F1054, trans-N-(4-Bromo-2-methylphenyl)-2-chloro-5-(2,2-dichloro-3-(3,5-dichlorophenyl)cyclopropane-1-carboxamido)benzamide]
[1]
  YFM: A (80–100)
[2]
  pest or weed control at 50 µg/cm2: 50 to 100%
[3]
  pest or weed control at 50 µg/cm2: 50 to 100%

## O=C(Nc1ccc(F)cc1)c1cc(NC(=O)[C@H]2[C@H](c3cc(Cl)cc(Cl)c3)C2(F)F)ccc1Cl (relative stereo) [F1057, trans-2-Chloro-5-(3-(3,5-dichlorophenyl)-2,2-difluorocyclopropane-1-carboxamido)-N-(4-fluorophenyl)benzamide]
[1]
  YFM: A (80–100)
[2]
  pest or weed control at 50 µg/cm2: 50 to 100%
[3]
  pest or weed control at 50 µg/cm2: 50 to 100%

## O=C(Nc1ccc(F)cc1F)c1cc(NC(=O)[C@H]2[C@H](c3cc(Cl)cc(Cl)c3)C2(F)F)ccc1Cl (relative stereo) [F1058, trans-2-Chloro-5-(3-(3,5-dichlorophenyl)-2,2-difluorocyclopropane-1-carboxamido)-N-(2,4-difluorophenyl)benzamide]
[1]
  YFM: A (80–100)
[2]
  pest or weed control at 50 µg/cm2: 50 to 100%
[3]
  pest or weed control at 50 µg/cm2: 50 to 100%

## CC(=O)Nc1ccc(NC(=O)c2cc(NC(=O)[C@H]3[C@H](c4ccc(Cl)c(Cl)c4)C3(Cl)Cl)ccc2Cl)c(C)c1 (relative stereo) [F1059, trans-N-(4-Acetamido-2-methylphenyl)-2-chloro-5-(2,2-dichloro-3-(3,4-dichlorophenyl)cyclopropane-1-carboxamido)benzamide]
[1]
  YFM: A (80–100)
[2]
  pest or weed control at 50 µg/cm2: 50 to 100%
[3]
  pest or weed control at 50 µg/cm2: 50 to 100%

## Cc1cc(NC(=O)C(F)(F)F)ccc1NC(=O)c1cc(NC(=O)[C@H]2[C@H](c3ccc(Cl)c(Cl)c3)C2(Cl)Cl)ccc1Cl (relative stereo) [F1061, trans-2-Chloro-5-(2,2-dichloro-3-(3,4-dichlorophenyl)cyclopropane-1-carboxamido)-N-(2-methyl-4-(2,2,2-trifluoroacetamido)phenyl)benzamide]
[1]
  YFM: A (80–100)
[2]
  pest or weed control at 50 µg/cm2: 50 to 100%
[3]
  pest or weed control at 50 µg/cm2: 50 to 100%

## Cc1cc(NC(=O)C(F)F)ccc1NC(=O)c1cc(NC(=O)[C@H]2[C@H](c3ccc(Cl)c(Cl)c3)C2(Cl)Cl)ccc1Cl (relative stereo) [F1062, trans-2-Chloro-5-(2,2-dichloro-3-(3,4-dichlorophenyl)cyclopropane-1-carboxamido)-N-(4-(2,2-difluoroacetamido)-2-methylphenyl)benzamide]
[1]
  YFM: A (80–100)
[2]
  pest or weed control at 50 µg/cm2: 50 to 100%
[3]
  pest or weed control at 50 µg/cm2: 50 to 100%

## Cc1cc([C@H]2[C@H](C(=O)Nc3ccc(Cl)c(C(=O)Nc4ccc(F)cc4F)c3)C2(Cl)Cl)cc(C(F)(F)F)c1F (relative stereo) [F1066, trans-2-Chloro-5-(2,2-dichloro-3-(4-fluoro-3-methyl-5-(trifluoromethyl)phenyl)cyclopropane-1-carboxamido)-N-(2,4-difluorophenyl)benzamide]
[1]
  YFM: A (80–100)
[2]
  pest or weed control at 50 µg/cm2: 50 to 100%
[3]
  pest or weed control at 50 µg/cm2: 50 to 100%

## Cc1cc([C@@H]2[C@H](C(=O)Nc3ccc(Cl)c(C(=O)Nc4ccc(F)cc4F)c3)C2(Cl)Cl)cc(C(F)(F)F)c1F (relative stereo) [F1067, cis-2-Chloro-5-(2,2-dichloro-3-(4-fluoro-3-methyl-5-(trifluoromethyl)phenyl)cyclopropane-1-carboxamido)-N-(2,4-difluorophenyl)benzamide]
[1]
  YFM: A (80–100)
[2]
  pest or weed control at 50 µg/cm2: 50 to 100%
[3]
  pest or weed control at 50 µg/cm2: 50 to 100%

## CC(C)(C)OC(=O)Nc1c(F)ccc(NC(=O)c2cc(NC(=O)[C@H]3[C@H](c4cc(Cl)cc(Cl)c4)C3(F)F)ccc2Cl)c1F (relative stereo) [F1070, trans-tert-Butyl (3-(2-chloro-5-(3-(3,5-dichlorophenyl)-2,2-difluorocyclopropane-1-carboxamido)benzamido)-2,6-difluorophenyl)carbamate]
[1]
  YFM: A (80–100)
[2]
  pest or weed control at 50 µg/cm2: 50 to 100%
[3]
  pest or weed control at 50 µg/cm2: 50 to 100%

## CNc1c(F)ccc(N(C)C(=O)c2cc(NC(=O)[C@H]3[C@H](c4ccc(Cl)c(Cl)c4)C3(Cl)Cl)ccc2Cl)c1F (relative stereo) [F1071, trans-2-Chloro-5-(2,2-dichloro-3-(3,4-dichlorophenyl)cyclopropane-1-carboxamido)-N-(2,4-difluoro-3-(methylamino)phenyl)-N-methylbenzamide]
[1]
  YFM: A (80–100)
[2]
  pest or weed control at 50 µg/cm2: 50 to 100%
[3]
  pest or weed control at 50 µg/cm2: 50 to 100%

## Nc1c(F)ccc(NC(=O)c2cc(NC(=O)[C@H]3[C@H](c4cc(Br)cc(C(F)(F)F)c4)C3(Cl)Cl)ccc2Cl)c1F (relative stereo) [F1075, trans-N-(3-Amino-2,4-difluorophenyl)-5-(3-(3-bromo-5-(trifluoromethyl)phenyl)-2,2-dichlorocyclopropane-1-carboxamido)-2-chlorobenzamide]
[1]
  YFM: A (80–100)
[2]
  pest or weed control at 50 µg/cm2: 50 to 100%
[3]
  pest or weed control at 50 µg/cm2: 50 to 100%
